Experimental data as given in PMC9030254, “Target Hopping from Protein Kinases to PXR: Identification of Small-Molecule Protein Kinase Inhibitors as Selective Modulators of Pregnane X Receptor from TüKIC Library” (Cells, 2022).

What was measured:
Assay in all cases: Kinase profiling
Format in all cases: biochemical
MKK6 SDTD = biological target: T1, MKK6 SDTD (Homo sapiens, UniProt P52564, S207D/T211D)
T1 construct: purchased ProQinase (Freiburg, Germany)
T1 sequence (P52564 1-334 S207D/T211D): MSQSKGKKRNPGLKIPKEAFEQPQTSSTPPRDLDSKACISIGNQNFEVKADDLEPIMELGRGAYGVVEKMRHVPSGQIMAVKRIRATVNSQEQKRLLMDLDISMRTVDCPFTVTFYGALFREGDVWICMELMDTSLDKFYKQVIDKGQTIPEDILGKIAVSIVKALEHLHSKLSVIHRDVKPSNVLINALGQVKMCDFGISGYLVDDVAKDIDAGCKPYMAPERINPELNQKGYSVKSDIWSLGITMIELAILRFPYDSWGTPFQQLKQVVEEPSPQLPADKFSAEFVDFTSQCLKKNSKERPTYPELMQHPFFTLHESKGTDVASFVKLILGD
Experimental: (§1) The analysis was performed by ProQinase (Freiburg, Germany).

CDK5/p35NCK = biological target: T2, CDK5/p35NCK (Homo sapiens, UniProt Q00535)
T2 construct: purchased ProQinase (Freiburg, Germany)
Experimental: as §1

FGR = biological target: T3, FGR (Homo sapiens, UniProt P09769)
T3 construct: purchased ProQinase (Freiburg, Germany)
Experimental: as §1

MKNK2 = biological target: T4, MKNK2 (Homo sapiens, UniProt Q9HBH9)
T4 construct: purchased ProQinase (Freiburg, Germany)
Experimental: as §1

CK1epsilon = biological target: T5, CK1epsilon (Homo sapiens, UniProt P49674)
T5 construct: purchased ProQinase (Freiburg, Germany)
Experimental: as §1

SIK1 = biological target: T6, SIK1 (Homo sapiens, UniProt P57059)
T6 construct: purchased ProQinase (Freiburg, Germany)
Experimental: as §1

MAP3K1 = biological target: T7, MAP3K1 (Homo sapiens, UniProt Q13233)
T7 construct: purchased ProQinase (Freiburg, Germany)
Experimental: as §1

TNK1 = biological target: T8, TNK1 (Homo sapiens, UniProt Q13470)
T8 construct: purchased ProQinase (Freiburg, Germany)
T8 sequence (Q13470 1-666): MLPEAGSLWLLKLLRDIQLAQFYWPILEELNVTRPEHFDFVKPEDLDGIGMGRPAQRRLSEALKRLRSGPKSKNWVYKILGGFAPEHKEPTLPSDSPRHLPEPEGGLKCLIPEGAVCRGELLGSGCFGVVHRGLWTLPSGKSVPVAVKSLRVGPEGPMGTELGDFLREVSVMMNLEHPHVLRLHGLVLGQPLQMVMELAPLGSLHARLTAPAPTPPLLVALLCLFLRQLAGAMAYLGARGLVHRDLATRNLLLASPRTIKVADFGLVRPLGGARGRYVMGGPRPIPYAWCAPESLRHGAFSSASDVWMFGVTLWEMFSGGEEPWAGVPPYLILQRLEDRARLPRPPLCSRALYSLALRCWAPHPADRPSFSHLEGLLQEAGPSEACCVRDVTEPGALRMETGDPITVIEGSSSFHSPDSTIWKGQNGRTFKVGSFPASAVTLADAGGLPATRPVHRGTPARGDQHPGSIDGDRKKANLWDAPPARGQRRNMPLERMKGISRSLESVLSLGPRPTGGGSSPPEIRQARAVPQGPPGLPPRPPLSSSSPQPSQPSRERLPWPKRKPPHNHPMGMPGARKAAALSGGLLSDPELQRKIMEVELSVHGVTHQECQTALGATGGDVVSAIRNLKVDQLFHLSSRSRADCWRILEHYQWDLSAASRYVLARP
Experimental: as §1

BMPR1B = biological target: T9, BMPR1B (Homo sapiens, UniProt O00238)
T9 construct: purchased ProQinase (Freiburg, Germany)
Experimental: as §1

MET = biological target: T10, MET (Homo sapiens, UniProt P08581)
T10 construct: purchased ProQinase (Freiburg, Germany)
Experimental: as §1

p38beta = biological target: T11, p38beta (Homo sapiens, UniProt Q15759); settings: for inhibition at 10 µM: read-out: inhibition of p38β
T11 construct: purchased ProQinase (Freiburg, Germany)
Experimental: as §1

MINK1 = biological target: T12, MINK1 (Homo sapiens, UniProt Q8N4C8)
T12 construct: purchased ProQinase (Freiburg, Germany)
Experimental: as §1

SRMS = biological target: T13, SRMS (Homo sapiens, UniProt Q9H3Y6)
T13 construct: purchased ProQinase (Freiburg, Germany)
Experimental: as §1

TTK = biological target: T14, TTK (Homo sapiens, UniProt P33981)
T14 construct: purchased ProQinase (Freiburg, Germany)
T14 sequence (P33981 1-857): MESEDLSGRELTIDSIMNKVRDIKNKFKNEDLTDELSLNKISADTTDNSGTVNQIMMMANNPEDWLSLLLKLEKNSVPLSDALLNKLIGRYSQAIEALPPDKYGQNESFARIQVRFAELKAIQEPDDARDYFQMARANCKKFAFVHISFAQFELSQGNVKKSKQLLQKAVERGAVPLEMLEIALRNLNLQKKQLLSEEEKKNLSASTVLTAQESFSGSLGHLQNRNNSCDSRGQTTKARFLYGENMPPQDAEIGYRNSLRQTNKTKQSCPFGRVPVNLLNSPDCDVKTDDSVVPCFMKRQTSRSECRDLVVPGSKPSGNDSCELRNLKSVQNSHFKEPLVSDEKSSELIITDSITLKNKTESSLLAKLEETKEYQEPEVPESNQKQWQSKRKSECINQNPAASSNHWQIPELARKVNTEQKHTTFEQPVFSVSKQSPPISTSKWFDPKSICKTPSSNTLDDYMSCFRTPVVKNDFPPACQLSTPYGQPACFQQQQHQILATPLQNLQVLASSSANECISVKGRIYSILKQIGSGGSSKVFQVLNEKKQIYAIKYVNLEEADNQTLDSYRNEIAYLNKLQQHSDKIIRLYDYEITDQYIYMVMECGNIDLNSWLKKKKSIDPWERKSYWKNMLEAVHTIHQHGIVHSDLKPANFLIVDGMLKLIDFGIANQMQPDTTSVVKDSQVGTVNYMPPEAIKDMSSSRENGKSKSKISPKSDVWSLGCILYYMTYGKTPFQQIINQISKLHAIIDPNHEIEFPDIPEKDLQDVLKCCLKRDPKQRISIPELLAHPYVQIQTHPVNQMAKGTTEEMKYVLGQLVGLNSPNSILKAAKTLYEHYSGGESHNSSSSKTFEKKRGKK
Experimental: as §1

CDC42BPA = biological target: T15, CDC42BPA (Homo sapiens, UniProt Q5VT25)
T15 construct: purchased ProQinase (Freiburg, Germany)
Experimental: as §1

T11 sequence (Q15759 whole entry): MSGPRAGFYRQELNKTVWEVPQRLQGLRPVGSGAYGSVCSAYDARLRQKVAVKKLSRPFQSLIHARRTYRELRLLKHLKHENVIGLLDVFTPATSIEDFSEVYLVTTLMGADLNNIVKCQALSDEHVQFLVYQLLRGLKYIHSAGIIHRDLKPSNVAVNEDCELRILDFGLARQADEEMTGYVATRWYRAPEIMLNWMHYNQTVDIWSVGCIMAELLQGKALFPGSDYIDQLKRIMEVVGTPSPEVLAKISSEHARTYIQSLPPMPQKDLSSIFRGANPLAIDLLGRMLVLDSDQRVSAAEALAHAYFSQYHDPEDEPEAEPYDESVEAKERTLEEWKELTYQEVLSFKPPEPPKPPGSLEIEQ
T9 sequence (O00238 14-502): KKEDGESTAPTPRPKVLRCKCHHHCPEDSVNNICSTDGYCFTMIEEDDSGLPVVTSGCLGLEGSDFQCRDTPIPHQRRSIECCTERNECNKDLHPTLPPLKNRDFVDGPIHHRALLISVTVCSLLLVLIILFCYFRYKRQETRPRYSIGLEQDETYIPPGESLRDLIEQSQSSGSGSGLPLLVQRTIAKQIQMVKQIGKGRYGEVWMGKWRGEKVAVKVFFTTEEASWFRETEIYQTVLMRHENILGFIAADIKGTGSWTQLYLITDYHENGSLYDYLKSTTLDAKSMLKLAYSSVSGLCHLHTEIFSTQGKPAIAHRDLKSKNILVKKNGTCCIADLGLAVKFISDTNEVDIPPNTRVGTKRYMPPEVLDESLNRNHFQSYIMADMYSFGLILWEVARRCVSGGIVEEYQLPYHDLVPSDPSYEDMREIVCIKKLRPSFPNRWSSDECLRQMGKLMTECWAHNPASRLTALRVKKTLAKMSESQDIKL
T6 sequence (P57059 whole entry): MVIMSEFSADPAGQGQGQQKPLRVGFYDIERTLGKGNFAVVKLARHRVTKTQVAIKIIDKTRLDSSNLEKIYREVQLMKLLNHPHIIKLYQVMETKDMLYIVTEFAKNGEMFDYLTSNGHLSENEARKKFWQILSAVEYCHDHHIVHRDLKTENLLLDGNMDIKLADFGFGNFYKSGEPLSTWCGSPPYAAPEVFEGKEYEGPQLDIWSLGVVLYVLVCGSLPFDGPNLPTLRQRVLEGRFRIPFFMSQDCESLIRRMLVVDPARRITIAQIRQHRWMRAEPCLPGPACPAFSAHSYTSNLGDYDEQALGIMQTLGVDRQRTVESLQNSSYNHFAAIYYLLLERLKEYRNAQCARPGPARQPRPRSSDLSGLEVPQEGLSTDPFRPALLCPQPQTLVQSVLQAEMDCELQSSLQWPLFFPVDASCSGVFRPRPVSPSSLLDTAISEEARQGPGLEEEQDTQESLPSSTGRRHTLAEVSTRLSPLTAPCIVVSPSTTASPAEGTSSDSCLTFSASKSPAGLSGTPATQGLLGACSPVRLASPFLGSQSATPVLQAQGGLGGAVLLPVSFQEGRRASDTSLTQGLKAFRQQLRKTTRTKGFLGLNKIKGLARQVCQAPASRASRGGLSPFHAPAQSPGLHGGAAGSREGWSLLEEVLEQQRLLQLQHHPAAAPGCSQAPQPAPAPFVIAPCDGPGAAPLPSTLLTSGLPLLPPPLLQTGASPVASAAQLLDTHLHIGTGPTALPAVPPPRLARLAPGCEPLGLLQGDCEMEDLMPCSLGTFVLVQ
T2 sequence (Q00535 whole entry): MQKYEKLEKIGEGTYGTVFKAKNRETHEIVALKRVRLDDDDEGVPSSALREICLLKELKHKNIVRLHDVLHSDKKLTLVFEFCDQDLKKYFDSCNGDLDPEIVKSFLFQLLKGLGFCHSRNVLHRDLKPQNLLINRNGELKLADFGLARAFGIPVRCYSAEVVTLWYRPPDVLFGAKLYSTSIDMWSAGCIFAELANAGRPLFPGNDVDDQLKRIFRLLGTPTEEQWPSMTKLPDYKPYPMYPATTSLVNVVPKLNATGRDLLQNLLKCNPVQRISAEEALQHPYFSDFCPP
T2 sequence (Q15078 whole entry partner): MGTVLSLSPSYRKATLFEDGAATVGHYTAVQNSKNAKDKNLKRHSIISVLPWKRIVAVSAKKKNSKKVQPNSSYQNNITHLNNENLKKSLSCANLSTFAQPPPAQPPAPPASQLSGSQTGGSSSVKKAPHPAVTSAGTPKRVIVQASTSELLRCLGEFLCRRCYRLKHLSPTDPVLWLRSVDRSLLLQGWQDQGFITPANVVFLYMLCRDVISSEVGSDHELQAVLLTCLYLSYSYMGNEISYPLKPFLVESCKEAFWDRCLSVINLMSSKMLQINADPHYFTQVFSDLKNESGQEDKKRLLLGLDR
T4 sequence (Q9HBH9 whole entry): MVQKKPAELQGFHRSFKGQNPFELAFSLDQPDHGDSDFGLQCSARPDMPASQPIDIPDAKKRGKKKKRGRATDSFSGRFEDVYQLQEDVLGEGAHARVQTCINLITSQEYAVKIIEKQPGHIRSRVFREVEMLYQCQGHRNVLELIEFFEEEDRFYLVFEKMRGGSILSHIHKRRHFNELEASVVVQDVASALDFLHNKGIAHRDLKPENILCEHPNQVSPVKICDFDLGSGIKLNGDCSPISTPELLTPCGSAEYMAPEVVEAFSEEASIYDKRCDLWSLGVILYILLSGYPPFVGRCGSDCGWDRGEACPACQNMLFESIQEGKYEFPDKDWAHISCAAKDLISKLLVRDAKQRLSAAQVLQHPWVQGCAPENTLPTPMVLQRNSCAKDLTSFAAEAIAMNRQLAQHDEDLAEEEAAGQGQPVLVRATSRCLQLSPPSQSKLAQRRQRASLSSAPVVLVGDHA
T3 sequence (P09769 whole entry): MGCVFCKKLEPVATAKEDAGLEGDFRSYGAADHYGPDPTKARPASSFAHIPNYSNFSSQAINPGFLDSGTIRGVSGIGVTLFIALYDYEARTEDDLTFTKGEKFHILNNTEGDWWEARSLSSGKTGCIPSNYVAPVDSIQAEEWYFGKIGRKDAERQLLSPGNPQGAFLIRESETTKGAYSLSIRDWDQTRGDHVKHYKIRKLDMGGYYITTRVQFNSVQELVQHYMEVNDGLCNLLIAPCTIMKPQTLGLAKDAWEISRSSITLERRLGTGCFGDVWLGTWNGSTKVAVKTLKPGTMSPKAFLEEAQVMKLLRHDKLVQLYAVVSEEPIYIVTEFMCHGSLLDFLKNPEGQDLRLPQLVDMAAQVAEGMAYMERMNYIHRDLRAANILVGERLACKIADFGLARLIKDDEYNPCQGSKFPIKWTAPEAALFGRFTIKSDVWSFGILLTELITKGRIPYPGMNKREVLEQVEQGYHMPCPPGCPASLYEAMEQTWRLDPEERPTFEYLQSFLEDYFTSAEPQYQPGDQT
T5 sequence (P49674 whole entry): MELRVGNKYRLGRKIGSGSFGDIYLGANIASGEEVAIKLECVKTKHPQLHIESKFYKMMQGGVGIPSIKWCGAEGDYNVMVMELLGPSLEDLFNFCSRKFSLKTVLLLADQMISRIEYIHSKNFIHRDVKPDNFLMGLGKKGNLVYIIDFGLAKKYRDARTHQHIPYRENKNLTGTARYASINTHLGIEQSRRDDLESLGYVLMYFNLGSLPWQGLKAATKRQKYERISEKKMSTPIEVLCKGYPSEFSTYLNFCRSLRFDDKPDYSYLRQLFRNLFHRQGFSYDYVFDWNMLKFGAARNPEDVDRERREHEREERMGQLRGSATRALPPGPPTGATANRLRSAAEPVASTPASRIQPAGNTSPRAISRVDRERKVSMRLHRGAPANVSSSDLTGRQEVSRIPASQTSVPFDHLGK
T10 sequence (P08581 25-1390): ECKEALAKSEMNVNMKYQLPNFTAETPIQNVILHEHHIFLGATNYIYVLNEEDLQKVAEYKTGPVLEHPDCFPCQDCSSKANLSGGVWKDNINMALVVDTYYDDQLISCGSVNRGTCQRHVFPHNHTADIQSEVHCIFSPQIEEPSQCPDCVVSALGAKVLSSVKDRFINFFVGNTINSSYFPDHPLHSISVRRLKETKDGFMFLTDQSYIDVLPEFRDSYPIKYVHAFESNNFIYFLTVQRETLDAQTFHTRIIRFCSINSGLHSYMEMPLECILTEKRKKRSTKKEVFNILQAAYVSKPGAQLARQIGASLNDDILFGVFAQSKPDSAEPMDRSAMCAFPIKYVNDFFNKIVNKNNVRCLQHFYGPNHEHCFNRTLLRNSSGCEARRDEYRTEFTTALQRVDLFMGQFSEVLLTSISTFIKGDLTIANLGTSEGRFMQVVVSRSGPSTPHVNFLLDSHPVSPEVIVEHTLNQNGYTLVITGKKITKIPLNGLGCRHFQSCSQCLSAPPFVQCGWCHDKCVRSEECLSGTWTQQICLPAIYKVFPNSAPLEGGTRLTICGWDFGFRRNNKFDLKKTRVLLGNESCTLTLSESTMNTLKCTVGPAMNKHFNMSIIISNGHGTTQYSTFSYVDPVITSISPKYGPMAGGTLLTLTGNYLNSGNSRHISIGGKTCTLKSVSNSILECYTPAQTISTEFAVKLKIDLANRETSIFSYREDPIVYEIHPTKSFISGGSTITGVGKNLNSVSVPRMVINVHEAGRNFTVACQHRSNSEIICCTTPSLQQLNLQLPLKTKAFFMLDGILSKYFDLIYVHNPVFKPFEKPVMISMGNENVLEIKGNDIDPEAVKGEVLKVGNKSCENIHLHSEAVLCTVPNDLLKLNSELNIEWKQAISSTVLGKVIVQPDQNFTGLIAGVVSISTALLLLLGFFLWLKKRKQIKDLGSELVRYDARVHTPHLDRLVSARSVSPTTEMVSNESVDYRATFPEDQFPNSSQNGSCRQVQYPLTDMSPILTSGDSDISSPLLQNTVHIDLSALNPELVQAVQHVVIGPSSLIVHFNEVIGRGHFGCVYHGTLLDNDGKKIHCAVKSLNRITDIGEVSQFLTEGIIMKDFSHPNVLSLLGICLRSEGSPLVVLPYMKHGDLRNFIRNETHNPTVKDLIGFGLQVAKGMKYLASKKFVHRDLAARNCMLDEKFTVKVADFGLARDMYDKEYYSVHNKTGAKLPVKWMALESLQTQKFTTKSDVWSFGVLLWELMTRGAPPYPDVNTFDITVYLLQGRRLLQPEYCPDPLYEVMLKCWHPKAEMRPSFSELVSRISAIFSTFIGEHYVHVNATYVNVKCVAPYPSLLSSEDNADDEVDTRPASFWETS

SMILES | Residual activity (MKK6 SDTD; 1.0E-05 M) | Residual activity (MKK6 SDTD; 1.0E-06 M) | Residual activity (CDK5/p35NCK; 1.0E-05 M) | Residual activity (CDK5/p35NCK; 1.0E-06 M) | Residual activity (FGR; 1.0E-05 M) | Residual activity (FGR; 1.0E-06 M) | Residual activity (MKNK2; 1.0E-05 M) | Residual activity (MKNK2; 1.0E-06 M) | Residual activity (CK1epsilon; 1.0E-05 M) | Residual activity (CK1epsilon; 1.0E-06 M) | Residual activity (SIK1; 1.0E-05 M) | Residual activity (SIK1; 1.0E-06 M) | Residual activity (MAP3K1; 1.0E-05 M) | Residual activity (MAP3K1; 1.0E-06 M) | Residual activity (TNK1; 1.0E-05 M) | Residual activity (TNK1; 1.0E-06 M) | Residual activity (BMPR1B; 1.0E-05 M) | Residual activity (BMPR1B; 1.0E-06 M) | Residual activity (MET; 1.0E-05 M) | Residual activity (MET; 1.0E-06 M) | also measured
O=C(Nc1ccc(F)c(Nc2ccc3c(c2)CCCCC3=O)c1)c1cccc(F)c1 [Compound 109] | 137 % of control | 85 % of control | 101 % of control | 95 % of control | 84 % of control | 105 % of control | 107 % of control | 104 % of control | 15 % of control | 52 % of control | 83 % of control | 89 % of control | 93 % of control | 96 % of control | 85 % of control | 89 % of control | 128 % of control | 101 % of control | 91 % of control | 95 % of control | inhibition at 10 µM (CK1epsilon; 10 µM, read-out: inhibition of CK1-ε): ≥ 50%; inhibition at 10 µM (p38beta): ≥ 50%; Residual activity (p38beta; 1.0E-05 M): 2 % of control; Residual activity (p38beta; 1.0E-06 M): 3 % of control; Residual activity (MINK1; 1.0E-05 M): 57 % of control; Residual activity (MINK1; 1.0E-06 M): 86 % of control; Residual activity (SRMS; 1.0E-05 M): 97 % of control; Residual activity (SRMS; 1.0E-06 M): 98 % of control; Residual activity (TTK; 1.0E-05 M): 89 % of control; Residual activity (TTK; 1.0E-06 M): 91 % of control; Residual activity (CDC42BPA; 1.0E-05 M): 116 % of control; Residual activity (CDC42BPA; 1.0E-06 M): 103 % of control
O=C(Cc1ccccc1)Nc1ccc(F)c(Nc2ccc3c(c2)CCCCC3=O)c1 [Compound 100] | 109 % of control | 89 % of control | 93 % of control | 105 % of control | 82 % of control | 108 % of control | 115 % of control | 112 % of control | 117 % of control | 107 % of control | 86 % of control | 84 % of control | 83 % of control | 96 % of control | 72 % of control | 101 % of control | 121 % of control | 102 % of control | 89 % of control | 101 % of control | inhibition at 10 µM (p38beta): ≥ 50%; Residual activity (p38beta; 1.0E-05 M): 50 % of control; Residual activity (p38beta; 1.0E-06 M): 71 % of control; Residual activity (MINK1; 1.0E-05 M): 73 % of control; Residual activity (MINK1; 1.0E-06 M): 89 % of control; Residual activity (SRMS; 1.0E-05 M): 93 % of control; Residual activity (SRMS; 1.0E-06 M): 102 % of control; Residual activity (TTK; 1.0E-05 M): 95 % of control; Residual activity (TTK; 1.0E-06 M): 99 % of control; Residual activity (CDC42BPA; 1.0E-05 M): 110 % of control; Residual activity (CDC42BPA; 1.0E-06 M): 114 % of control
